The record followed here is US11229599B2, “Implant compositions for the unidirectional delivery of therapeutic compounds to the brain” (Board of Regents, the University of Texas System, priority 2015, dated 2022).

The data set is described as follows: Differential scanning calorimetry, physical state of APAP in glycerol behenate. It is filed as physicochemical. The following applies: FIG. 6; 5% APAP+95% glycerol behenate, physical blend and melt mix. The method, then: Differential scanning calorimetry testing was performed using a TA Thermal Analyzer (Model DSC Q20, TA Instruments, New Castle, Del., US). The temperature was calibrated with an indium standard. Sample size was about 5 mg and a temperature ramp of 10° C. per minute was used. Universal Analysis 2000 data analysis software was used for data analysis. Inflection point method was used for the analysis of the glass transition temperature. The melting temperature is defined as the intersection of the extension of the baseline with the tangent at the inflection point of the curve.
(Differential scanning calorimetry records heat flow against a reference as temperature is scanned.)

With `CC(=O)Nc1ccc(O)cc1` [APAP, acetaminophen], the “physical state of APAP in glycerol behenate” value is “dispersed as crystalline particles”.
